Data set [1] deals with Candida albicans. The experiment in a line: Fungicidal activity against fluconazole-resistant Candida albicans ATCC 64550 at 4 times MIC incubated for overnight flowed by replating and measured after 24 hrs. Type of data set: functional, organism-based.
Data set [2] deals with Candida albicans. The experiment in a line: Antifungal activity against fluconazole-resistant Candida albicans TTSH-CALB02 after overnight incubation by CLSI broth microdilution method. In kind it is functional.
A further data set deals with NHDF. The experiment in a line: Cytotoxicity against NHDF assessed as reduction in cell viability up to 200 uM after 5 days by CellTiter-Glo assay. Type of data set: cell-based. The following applies: human, 120 h. A general note: In ATP-based viability assays light output follows the ATP content of the culture.
The subject of data set [3] is Saccharomyces cerevisiae. The experiment in a line: Induction of membrane permeabilization in Saccharomyces cerevisiae BY4743 assessed as propidium iodide uptake at 46 uM preincubated for 2.5 hrs followed by propidium iodide addition and measured after 20 mins by bright-field and fluorescence microscopic analysis (reference value: 98%). In kind it is functional.
Data set [4] in a line: Retention time of the compound at 0.4 mM by HPLC analysis. Type of data set: physicochemical. As to conditions: 400 µM.
Data set [5] concerns Saccharomyces cerevisiae. The experiment in a line: Growth inhibition of Saccharomyces cerevisiae BY4743 incubated for 16 to 24 hrs. Type of data set: functional.
Data set [6] deals with Candida albicans. Briefly: Antifungal activity against fluconazole-resistant Candida albicans NUH-K6004 after overnight incubation by CLSI broth microdilution method. Type of data set: functional. In general terms: In broth dilution the organism is exposed to a series of concentrations in liquid medium.
In data set [7] the test system is Saccharomyces cerevisiae. Briefly: Induction of membrane permeabilization in Saccharomyces cerevisiae BY4743 assessed as propidium iodide uptake at 23 uM preincubated for 2.5 hrs followed by propidium iodide addition and measured after 20 mins by bright-field and fluorescence microscopic analysis (reference value: 98%). Type of data set: functional.
The test system of data set [8] is Candida albicans. Briefly: Antifungal activity against fluconazole-resistant Candida albicans ATCC 64550 after overnight incubation by CLSI broth microdilution method. In kind it is functional.
Data set [9] relates to Candida albicans. Briefly: Antifungal activity against fluconazole-resistant Candida albicans TTSH-CALB01 after overnight incubation by CLSI broth microdilution method. Type of data set: functional.
In data set [10] the test system is Candida albicans. The experiment in a line: Antifungal activity against fluconazole-resistant Candida albicans ATCC 64124 after overnight incubation by CLSI broth microdilution method. In kind it is functional.
Data set [11] concerns Candida albicans. The experiment in a line: Antifungal activity against fluconazole-resistant Candida albicans ATCC MYA-573 after overnight incubation by CLSI broth microdilution method. In kind it is functional.
Data set [12] concerns Candida albicans. Briefly: Antifungal activity against fluconazole-resistant Candida albicans ATCC 96901 after overnight incubation by CLSI broth microdilution method. In kind it is functional.
The subject of data set [13] is Candida albicans. The experiment in a line: Antifungal activity against fluconazole-resistant Candida albicans ATCC 200955 after overnight incubation by CLSI broth microdilution method. In kind it is functional.
A short description of data set [14]: Cytotoxicity against human bone marrow cells assessed as inhibition of colony formation. In kind it is cell-based, Bone marrow cell.
Data set [15] can be described thus: Cytotoxicity against NHDF assessed as reduction in cell viability after 5 days by CellTiter-Glo assay. The following applies: human, NHDF cells. Type of data set: cell-based.
The subject of data set [16] is Candida albicans. The experiment in a line: Fungistatic activity against fluconazole-resistant Candida albicans ATCC 64550 at 4 times MIC incubated for overnight flowed by replating and measured after 24 hrs. In kind it is functional, organism-based.
The test system of data set [17] is Candida albicans. The experiment in a line: Potency index, ratio of omiganan MIC to compound MIC for antifungal activity against fluconazole-resistant Candida albicans ATCC 64550. In kind it is functional.
The subject of data set [18] is Candida albicans. Briefly: Antifungal activity against fluconazole-susceptible Candida albicans. Type of data set: functional.

Values after ≈ are worked out from the molar mass of the structure shown. Active and inactive are the calls of the source. Peptide text beside a SMILES is read from it.

The MIC is the smallest concentration in the dilution series that meets the test's criterion for growth inhibition. The term GI50 denotes the concentration at which growth is held to half of that of the control. As to `CCCC[C@H](NC(=O)[C@H](CCCCN)NC(=O)[C@H](CCCC)NC(=O)[C@H](CCCCN)NC(=O)[C@H](CCCC)NC(=O)[C@H](CCCCN)NC(=O)[C@@H](N)CCCC)C(=O)N[C@@H](CCCCN)C(N)=O` (HELM PEPTIDE1{[Nle].K.[Nle].K.[Nle].K.[Nle].K.[am]}$$$$V2.0), the result in the data set with Candida albicans [1] was Active. The MIC is 1.56 µM (≈ 1.53 µg/mL) with Candida albicans [2]; 1.56 µM (≈ 1.53 µg/mL) against Candida albicans [6]; 1.56 µM (≈ 1.53 µg/mL) in the data set with Candida albicans [8]; 1.56 µM (≈ 1.53 µg/mL) with Candida albicans [9]; 3.13 µM (≈ 3.07 µg/mL) in the data set on Candida albicans [10]; 3.13 µM (≈ 3.07 µg/mL) with Candida albicans [11]. In addition, the MIC against Candida albicans [12] and in the data set with Candida albicans [13] was 1.56 µM (≈ 1.53 µg/mL) in each case. Besides, the values for the Activity entry in the data set on NHDF, in the data set on Saccharomyces cerevisiae [3] and with Saccharomyces cerevisiae [7] were “Non-Toxic”, 100% and 75%, respectively. Moreover, the Retention_time in data set [4] is 14 min. This molecule came in with a GI50 in the data set with Saccharomyces cerevisiae [5] of 5.75 µM. The TGI in the data set with Saccharomyces cerevisiae [5] (read-out: GI100) came to 5.75 µM.

As for `OC(Cn1cncn1)(Cn1cncn1)c1ccc(F)cc1F` [FLUCONAZOLE], the MIC against Candida albicans [2], in the data set on Candida albicans [6], against Candida albicans [8], against Candida albicans [9], with Candida albicans [10] and with Candida albicans [11] was more than 100 µM throughout. The MIC against Candida albicans [12] and in the data set on Candida albicans [13] was more than 100 µM in each case.

On to `Clc1ccc(COC(Cn2ccnc2)c2ccc(Cl)cc2Cl)c(Cl)c1` (centres undefined) [MICONAZOLE], for which the GI50 in [14] was 12.8 µM. Besides, the GI50 at 120 h in data set [15] stood at 10.3 µM. In addition, the MIC against Candida albicans [2] amounted to 12.5 µM (≈ 5.2 µg/mL); in the data set on Candida albicans [6], 12.5 µM (≈ 5.2 µg/mL); in the data set on Candida albicans [8], 12.5 µM (≈ 5.2 µg/mL); against Candida albicans [9] it was 12.5 µM (≈ 5.2 µg/mL); with Candida albicans [10], 12.5 µM (≈ 5.2 µg/mL); with Candida albicans [11] it was 6.25 µM (≈ 2.6 µg/mL). For the same molecule, the MIC against Candida albicans [12] came to 6.25 µM (≈ 2.6 µg/mL); in the data set on Candida albicans [13], 12.5 µM (≈ 5.2 µg/mL). The outcome in the data set with Candida albicans [16] was Active.

Consider `CC(O)CO` (centres undefined) [PROPYLENE GLYCOL], for which the Activity entry in the data set on NHDF is “Non-Toxic”.

For the molecule H-IKIKIKIK-NH2, in data set [4], the Retention_time stood at 13.4 min. The Ratio in the data set with Candida albicans [17] amounted to 16. Further, the MIC is 1.56 µM against Candida albicans [18] and 3.13 µM with Candida albicans [8].

The values are drawn from ChEMBL document CHEMBL4229348, “Structure-activity relationship studies of ultra-short peptides with potent activities against fluconazole-resistant Candida albicans” (Eur J Med Chem, 2018).
